# US5466677A, “Dinucleoside phosphinates and their pharmaceutical compositions” (Ciba-Geigy Corporation, priority 1993, dated 1995)
# Tests used:
# [1] = system: complementary RNA sequences; type: binding; settings: for Tm: pH 7; for ΔTm/mod: pH 7.0
# [2] = system: human cytomegalovirus (HCMV) (strain AD 169); test: plaque-reduction assay, HCMV in human embryonic fibroblasts; type: cell-based; settings: Human betaherpesvirus 5, Fibroblast; HCMV strain AD 169, human embryonic fibroblasts, 7 to 10 days
# Experimental: (§1) Compounds prepared in some of the previous Examples are tested for antiviral activity against herpes simplex virus type 1 (HSV-1) (strain 17i) and human cytomegalovirus (HCMV) (strain AD 169) in vitro. Aqueous solutions of the compounds are prepared at concentrations between 10 mM and 50 mM. The solutions are stored at -70° C. after preparation and thawed prior to use in the antiviral assays. After thawing, the solutions are diluted to the appropriate concentration in the cell-culturemedium without prior filtration.
# (§2) In a procedure similar to that described by Tyros et al, J. Antimicrob. Chemother., 8, 65-72 (1981), cell monolayers are infected with 20-200 plaque forming units and after virus adsorption the inoculum is replaced by maintenance medium containing different concentrations of the compound under investigation. Virus spread is prevented by the incorporation of 0.5% low gelling temperature agarose. At the end of a set period (2 or 3 days for HSV and 7 to 10 days for HCMV) monolayers are fixed, stained with methylene blue and plaque numbers determined.
# [3] = system: herpes simplex virus type 1 (HSV-1) (strain 17i); test: plaque-reduction assay, HSV-1 in Vero cells; type: cell-based; settings: Human alphaherpesvirus 1, 2 or 3 days
# Experimental: as §1, §2
compound,measurement,setting,value
"Example 98: CTC GTA CT*T T*TC CGG TCC, T*T units derived from Compound 81B (CTCGTACTTTTCCGGTCC; T*T modified units from Compound 81B, chemistry not fully specified)",Tm,[1],58.8 °C
same,ΔTm/mod,[1],-1.3 °C
"Example 97: CTC GTA CT*T T*TC CGG TCC, T*T units derived from Compound 81A (CTCGTACTTTTCCGGTCC; T*T modified units from Compound 81A, chemistry not fully specified)",Tm,[1],57.9 °C
same,ΔTm/mod,[1],-1.8 °C
"Example 87: TTT T*TC TCT CTC TCT, T*T unit derived from Compound 81 (hydrolysed) (TTTTTCTCTCTCTCT; T*T modified dimer unit from Compound 81 (hydrolysed), chemistry not fully specified)",Tm,[1],45.7 °C
same,ΔTm/mod,[1],-2.8 °C
"Example 89: TTT T*TC TCT CTC TCT, T*T unit derived from Compound 81A (TTTTTCTCTCTCTCT; one T*T dimer with modified linkage from Compound 81A, further chemistry not given here)",Tm,[1],45.7 °C
same,ΔTm/mod,[1],-3.3 °C
"Example 99: GCG T*TT *TT*T T*TT *TGC G, T*T indicating a unit derived from Compound 81 (hydrolysed) (GCGTTTTTTTTTTGCG; several T*T modified linkages from hydrolysed Compound 81, further chemistry not given here)",Tm,[1],39.6 °C
same,ΔTm/mod,[1],-1.8 °C
"Example 96: CTC GTA CT*T T*TC CGG TCC, T*T units derived from Compound 81 (CTCGTACTTTTCCGGTCC; T*T modified units from Compound 81, chemistry not fully specified)",Tm,[1],58.5 °C
same,ΔTm/mod,[1],-1.5 °C
CCOP(=O)(CC[C@H]1O[C@@H](n2cc(C)c(=O)[nH]c2=O)C[C@@H]1OC(=O)c1ccccc1)C[C@H]1C[C@H](n2cc(C)c(=O)[nH]c2=O)O[C@@H]1CO[Si](c1ccccc1)(c1ccccc1)C(C)(C)C (stereo partly drawn) [Compound 13],IC50,[2],1 to 10 µM
same,IC50,[3],5 to 50 µM
"Example 90: TTT T*TC TCT CTC TCT, T*T unit derived from Compound 81B (TTTTTCTCTCTCTCT; one T*T dimer with modified linkage from Compound 81B, further chemistry not given here)",Tm,[1],47.2 °C
same,ΔTm/mod,[1],-1.3 °C
"Example 88: TTT T*TC TCT CTC TCT, T*T unit derived from Compound 81 (TTTTTCTCTCTCTCT; one T*T dimer with modified linkage from Compound 81, further chemistry not given here)",Tm,[1],46.8 °C
same,ΔTm/mod,[1],-2.2 °C
"Example 95: CTC GTA CT*T T*TC CGG TCC, T*T units derived from Compound 81 (hydrolysed) (CTCGTACTTTTCCGGTCC; two T*T dimers with modified linkage from hydrolysed Compound 81, further chemistry not given here)",Tm,[1],58.2 °C
same,ΔTm/mod,[1],-1.6 °C
CCOP(=O)(CC[C@H]1O[C@@H](n2cc(C)c(=O)[nH]c2=O)C[C@@H]1O)C[C@H]1C[C@H](n2cc(C)c(=O)[nH]c2=O)O[C@@H]1CO[Si](c1ccccc1)(c1ccccc1)C(C)(C)C (stereo partly drawn) [Compound 14],IC50,[2],> 200 µM
same,IC50,[3],20 to 200 µM
CCOP(=O)(CC[C@H]1O[C@@H](n2cc(C)c(=O)[nH]c2=O)C[C@@H]1OC(=O)c1ccccc1)C[C@H]1C[C@H](n2cc(C)c(=O)[nH]c2=O)O[C@@H]1CO (stereo partly drawn) [Compound 15],IC50,[2],> 2 µM
same,IC50,[3],> 5 µM
